In ChEMBL document CHEMBL5390201, “The Natural Alkaloid (-)-N-Hydroxyapiosporamide Suppresses Colorectal Tumor Progression as an NF-κB Pathway Inhibitor by Targeting the TAK1-TRAF6 Complex” (J Nat Prod, 2023):
The source made the active and inactive calls. No cut-off for these calls is given here.

Legend:
[1] = tested on: HT-29; test: Induction of cell cycle arrest in human HT-29 cells assessed as accumulation of cells at G0/G1 phase at 1 uM by RNase/PI staining based flow cytometry analysis (reference value: 50.73 %); type: functional
[2] = tested on: HT-29; test: Induction of cell cycle arrest in human HT-29 cells assessed as accumulation of cells at S phase at 1 uM by RNase/PI staining based flow cytometry analysis (reference value: 39.34%); type: functional
[3] = tested on: HCT-116; test: Antitumor activity against human HCT-116 cells xenografted in athymic nude BALB/c mouse assessed as induction of apoptosis by measuring increase in cleaved caspase 3 expression in tumor at 15 mg/kg, ip administered every other day and measured after 14 days by immunohistochemistry analysis; type: functional, organism-based; settings: time 14.0 day
[4] = tested on: HCT-116; test: Induction of apoptosis in human HCT-116 cells assessed as viable cells at 5 uM incubated for 24 hrs by Annexin V-FITC/PI staining based flow cytometric analysis (reference value: 74.3 %); type: functional; settings: read-out: Activity
[5] = Cmax in Sprague-Dawley rat at 10 mg/kg, iv measured for 5 mins by HPLC-MS/MS analysis; type: ADME, organism-based; set-up: time 5 min, dose 10 mg/kg, route iv; settings: in vivo
[6] = tested on: HCT-116; test: Induction of apoptosis in human HCT-116 cells assessed as early apoptotic cells at 0.25 uM incubated for 24 hrs by Annexin V-FITC/PI staining based flow cytometric analysis (reference value: 7.22 %); type: functional
[7] = tested on: HCT-116; test: Induction of cell cycle arrest in human HCT-116 cells assessed as decrease in CDK4 protein expression upto 10 uM incubated for 24 hrs by Western blot analysis; type: functional, cell-based
[8] = tested on: HCT-116; test: Induction of cell cycle arrest in human HCT-116 cells assessed as accumulation of cells at G0/G1 phase at 5 uM by RNase/PI staining based flow cytometry analysis (reference value: 33.08 %); type: functional
[9] = tested on: HCT-116; test: Induction of apoptosis in human HCT-116 cells assessed as late apoptotic cells at 5 uM incubated for 24 hrs by Annexin V-FITC/PI staining based flow cytometric analysis (reference value: 2.9 %); type: functional
[10] = tested on: Mus musculus; test: In vivo inhibition of NFkappaB activation in athymic BALB/c mouse xenografted with human HT-29 cells assessed as reduction in E-selectin gene expression in tumor at 5 to 15 mg/kg, ip administered every other day and measured after 14 days by qRT-PCR analysis; type: functional, organism-based; settings: dose 5-15 mg/kg, time 14.0 day
[11] = biological target: T1, Nuclear factor NF-kappa-B complex (Homo sapiens) (UniProt Q00653+P19838+Q04206); test: Inhibition of TNF-alpha induced NFkappaB activation in human HCT-116 cells assessed as inhibition of p65 phosphorylation at 1 to 10 uM pretreated for 24 hrs followed by TNFalpha stimulation for 10 mins by Western blot analysis; type: cell-based; settings: dose 1-10 µM, time 1450.0 min
T1 sequence (P19838 whole entry, looked up): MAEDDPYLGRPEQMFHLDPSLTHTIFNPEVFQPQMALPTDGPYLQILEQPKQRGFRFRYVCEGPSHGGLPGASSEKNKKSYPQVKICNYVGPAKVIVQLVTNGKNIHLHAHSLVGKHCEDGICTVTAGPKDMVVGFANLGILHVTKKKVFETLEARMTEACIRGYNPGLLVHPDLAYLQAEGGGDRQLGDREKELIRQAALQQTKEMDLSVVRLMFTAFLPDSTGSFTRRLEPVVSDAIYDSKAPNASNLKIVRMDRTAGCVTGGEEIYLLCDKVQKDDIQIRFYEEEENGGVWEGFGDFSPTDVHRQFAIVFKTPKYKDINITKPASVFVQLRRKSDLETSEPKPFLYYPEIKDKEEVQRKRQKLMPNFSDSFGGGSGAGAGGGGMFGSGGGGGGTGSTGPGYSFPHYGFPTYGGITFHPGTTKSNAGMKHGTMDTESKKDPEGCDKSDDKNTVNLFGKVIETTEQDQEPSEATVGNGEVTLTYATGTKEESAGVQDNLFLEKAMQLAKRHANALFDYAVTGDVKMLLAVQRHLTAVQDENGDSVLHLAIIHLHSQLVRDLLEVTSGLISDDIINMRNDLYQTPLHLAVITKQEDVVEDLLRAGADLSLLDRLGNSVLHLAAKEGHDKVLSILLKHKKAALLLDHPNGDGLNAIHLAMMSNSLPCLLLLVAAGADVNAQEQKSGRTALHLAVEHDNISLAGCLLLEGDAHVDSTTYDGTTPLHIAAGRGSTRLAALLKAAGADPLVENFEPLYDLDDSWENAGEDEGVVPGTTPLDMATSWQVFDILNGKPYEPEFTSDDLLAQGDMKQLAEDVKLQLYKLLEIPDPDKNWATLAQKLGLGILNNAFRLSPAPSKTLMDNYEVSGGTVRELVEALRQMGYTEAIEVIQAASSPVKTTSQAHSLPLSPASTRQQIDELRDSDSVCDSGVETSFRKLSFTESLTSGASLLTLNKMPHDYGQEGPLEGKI
T1 sequence (Q00653 whole entry, looked up): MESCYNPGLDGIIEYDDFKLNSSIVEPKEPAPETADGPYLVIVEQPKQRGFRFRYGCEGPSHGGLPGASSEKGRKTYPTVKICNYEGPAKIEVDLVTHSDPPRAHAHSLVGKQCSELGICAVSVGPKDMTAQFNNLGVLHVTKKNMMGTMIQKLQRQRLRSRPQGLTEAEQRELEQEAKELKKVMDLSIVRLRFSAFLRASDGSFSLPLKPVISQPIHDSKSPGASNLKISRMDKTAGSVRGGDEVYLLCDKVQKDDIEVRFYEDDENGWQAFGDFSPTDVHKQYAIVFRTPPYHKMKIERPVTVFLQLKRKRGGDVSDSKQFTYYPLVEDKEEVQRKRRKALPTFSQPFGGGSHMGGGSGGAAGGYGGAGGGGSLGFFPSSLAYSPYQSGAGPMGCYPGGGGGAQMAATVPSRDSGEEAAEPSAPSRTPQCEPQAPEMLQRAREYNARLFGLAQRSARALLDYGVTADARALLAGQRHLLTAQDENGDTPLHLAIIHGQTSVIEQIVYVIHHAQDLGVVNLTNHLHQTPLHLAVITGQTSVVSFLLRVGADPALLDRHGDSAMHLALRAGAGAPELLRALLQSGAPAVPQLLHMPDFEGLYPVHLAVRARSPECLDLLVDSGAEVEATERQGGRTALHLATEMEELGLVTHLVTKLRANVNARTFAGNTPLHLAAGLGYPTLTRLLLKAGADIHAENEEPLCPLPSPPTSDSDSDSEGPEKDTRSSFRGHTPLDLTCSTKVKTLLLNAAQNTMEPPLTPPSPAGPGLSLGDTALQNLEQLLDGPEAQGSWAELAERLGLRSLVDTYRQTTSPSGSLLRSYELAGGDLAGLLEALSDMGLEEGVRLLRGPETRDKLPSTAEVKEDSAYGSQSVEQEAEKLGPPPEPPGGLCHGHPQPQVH
T1 sequence (Q04206 whole entry, looked up): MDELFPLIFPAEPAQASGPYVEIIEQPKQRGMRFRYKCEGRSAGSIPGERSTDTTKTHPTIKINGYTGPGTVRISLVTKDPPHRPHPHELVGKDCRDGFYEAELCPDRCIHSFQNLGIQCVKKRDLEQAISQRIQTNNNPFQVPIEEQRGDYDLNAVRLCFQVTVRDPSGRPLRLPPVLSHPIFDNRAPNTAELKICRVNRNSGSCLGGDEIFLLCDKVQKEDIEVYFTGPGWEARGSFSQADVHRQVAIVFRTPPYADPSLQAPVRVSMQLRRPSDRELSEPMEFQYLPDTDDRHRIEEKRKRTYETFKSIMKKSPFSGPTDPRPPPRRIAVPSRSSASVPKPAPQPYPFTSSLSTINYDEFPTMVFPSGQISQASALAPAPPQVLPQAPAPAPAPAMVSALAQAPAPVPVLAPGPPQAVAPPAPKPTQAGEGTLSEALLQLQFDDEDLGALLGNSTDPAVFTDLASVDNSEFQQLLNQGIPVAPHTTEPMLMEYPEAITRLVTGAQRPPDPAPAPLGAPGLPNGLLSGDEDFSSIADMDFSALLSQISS

[12] = tested on: Mus musculus; test: In vivo inhibition of NFkappaB activation in athymic BALB/c mouse xenografted with human HT-29 cells assessed as reduction in MCP-1 gene expression in tumor at 5 to 15 mg/kg, ip administered every other day and measured after 14 days by qRT-PCR analysis; type: functional, organism-based; settings: dose 5-15 mg/kg, time 14.0 day
[13] = Toxicity in athymic nude BALB/c mouse assessed as change in serum creatine kinase level at 5 to 15 mg/kg, ip administered every other day and measured after 14 days; type: organism-based; settings: in vivo, 336 h, dose 5-15 mg/kg, time 14 day
[14] = tested on: HCT-116; test: Induction of cell cycle arrest in human HCT-116 cells assessed as accumulation of cells at G2/M phase at 5 uM by RNase/PI staining based flow cytometry analysis (reference value: 23.15 %); type: functional
[15] = tested on: HCT-116; test: Cytotoxicity against human HCT-116 cells assessed as inhibition of cell growth incubated for 24 hrs by SRB assay; type: functional, cell-based; settings: HCT-116, 24 h
[16] = biological target: T1, Nuclear factor NF-kappa-B complex (Homo sapiens); test: Inhibition of TNF-alpha induced NFkappaB activation in human HT-29 cells assessed as inhibition of IkappaBalpha phosphorylation at 1 to 10 uM pretreated for 24 hrs followed by TNFalpha stimulation for 10 mins by Western blot analysis; type: cell-based; settings: dose 1-10 µM, time 1450.0 min
[17] = Half life in Sprague-Dawley rat at 10 mg/kg, ip measured for 24 hrs by HPLC-MS/MS analysis; type: ADME, organism-based; settings: in vivo
[18] = tested on: HCT-116; test: Induction of autophagy in human HCT-116 cells assessed as increase in LC3I to LC3II conversion at 1 to 10 uM incubated for 24 hrs by Western blotting analysis; type: functional, cell-based; settings: dose 1-10 µM
[19] = tested on: HT-29; test: Induction of apoptosis in human HT-29 cells assessed as late apoptotic cells at 0.25 uM incubated for 24 hrs by Annexin V-FITC/PI staining based flow cytometric analysis (reference value: 1.56 %); type: functional
[20] = tested on: HT-29; test: Induction of cell cycle arrest in human HT-29 cells assessed as accumulation of cells at G2/M phase at 5 uM by RNase/PI staining based flow cytometry analysis (reference value: 9.93 %); type: functional
[21] = tested on: HCT-116; test: Induction of apoptosis in human HCT-116 cells assessed as viable cells at 10 uM incubated for 24 hrs by Annexin V-FITC/PI staining based flow cytometric analysis (reference value: 88.8%); type: functional; settings: read-out: Activity
[22] = tested on: HT-29; test: Antitumor activity against human HT-29 cells xenografted in athymic nude BALB/c mouse assessed as induction of apoptosis by measuring increase in cleaved caspase 3 expression in tumor at 15 mg/kg, ip administered every other day and measured after 14 days by immunohistochemistry analysis; type: functional, organism-based; settings: time 14.0 day
[23] = tested on: HCT-116; test: Induction of apoptosis in human HCT-116 cells assessed as late apoptotic cells at 0.5 uM incubated for 24 hrs by Annexin V-FITC/PI staining based flow cytometric analysis (reference value: 2.9 %); type: functional
[24] = tested on: Mus musculus; test: (§1) Anti-inflammatory activity in AOM/DSS-induced BALB/c mouse model inflammatory bowel disease assessed as reduction in death rate at 5 to 10 mg/kg, ip pretreated with AOM for 7 days further replaced with DSS for 7 days and repeated for 2 times followed by every 2 days compound treatment for […] starting from day 50 and measured once a week; type: functional, organism-based; settings: dose 5-10 mg/kg, time 21.0 day
[25] = tested on: Mus musculus; test: In vivo inhibition of NFkappaB activation in athymic BALB/c mouse xenografted with human HT-29 cells assessed as reduction in IL-8 gene expression in tumor at 5 to 15 mg/kg, ip administered every other day and measured after 14 days by qRT-PCR analysis; type: functional, organism-based; settings: dose 5-15 mg/kg, time 14.0 day
[26] = tested on: HCT-116; test: Induction of apoptosis in human HCT-116 cells assessed as necrotic cells at 1 uM incubated for 24 hrs by Annexin V-FITC/PI staining based flow cytometric analysis (reference value: 1.1 %); type: functional
[27] = tested on: SW-620; test: Cytotoxicity against human SW620 cells assessed as decrease in cell viability incubated for 48 hrs by SRB assay; type: functional, cell-based; settings: SW-620, 48 h
[28] = tested on: HCT-116; test: Induction of apoptosis in human HCT-116 cells assessed as early apoptotic cells at 10 uM incubated for 24 hrs by Annexin V-FITC/PI staining based flow cytometric analysis (reference value: 7.22 %); type: functional
[29] = tested on: Mus musculus; test: as §1, with “DAI score” for “death rate”; type: functional, organism-based; settings: dose 5-10 mg/kg, time 21.0 day
[30] = tested on: RAW264.7; test: Inhibition of LPS-induced NFkappaB activation in mouse RAW264.7 cells assessed as inhibition of NO production preincubated for 24 hrs followed by LPS stimulation for 24 hrs; type: cell-based; settings: dose 0.125-1 µM, time 48.0 hrs

In the case of `C[C@@H]1CC[C@H]2[C@H](C(=O)c3c(O)c([C@@]4(O)CC[C@@H](O)[C@H]5O[C@H]54)cn(O)c3=O)[C@H](C)C=C[C@@H]2C1`, the Activity [1] is reported as 69.17%, the Activity [2] is reported as 23.75% and the Activity [3] is reported as “Active”. It also gave a viability at 5 µM [4] of 15.6%, a Cmax [5] of 13200 ng/mL and an Activity [6] of 8.93%. For the same compound, the Activity [7] was “Active”, the Activity [8] was 44.31% and the Activity [9] was 64.4%. For the same compound, the inhibition [10] was “Active”, the inhibition [11] was “Active” and the inhibition [12] was “Active”. For the same compound, the Activity [13] was “Non-Toxic”, the Activity [14] was 15.66% and the IC50 [15] was 2800 nM. The inhibition [16] was “Active”, the half-life [17] was 3.73 h and the Activity [18] was “Active”. The Activity [19] was 1.4%, the Activity [20] was 0.17% and the viability at 10 µM [21] was 11.1%. The Activity [22] was “Active”, the Activity [23] was 32.8% and the Activity [24] was “Active”. For the same compound, the inhibition [25] was “Active”, the Activity [26] was 2.41% and the IC50 [27] was 570 nM. For the same compound, the Activity [28] was 12.3%, the Activity [29] was “Active” and the inhibition [30] was “Dose-Dependent Effect”.
